Test results from publication PMC12343752, “Functional and structural insights into a thermostable (S)-selective amine transaminase and its improved substrate scope by protein engineering” (Applied Microbiology and Biotechnology, 2025).

Tests used:
Sbv333-ATA = biological target: T1, Sbv333-ATA (Streptomyces odorifer, UniProt A0A7Y6F089); test: glycine oxidase (GO) coupled assay; acetophenone formation at […] nm; format: biochemical; settings: 2 mM amine, 50 mM HEPES pH 9.0, room temperature (GO assay)
T1 construct: gene G6W59_16020; 6xHis-tagged, pETite vector, E. coli BL21(DE3) with GroES/GroEL, Ni-NTA (plus SEC for crystals); residues 1-459 described; dimer about 100 kDa by gel filtration; catalytic Lys289
T1 sequence (A0A7Y6F089 entry or part of it): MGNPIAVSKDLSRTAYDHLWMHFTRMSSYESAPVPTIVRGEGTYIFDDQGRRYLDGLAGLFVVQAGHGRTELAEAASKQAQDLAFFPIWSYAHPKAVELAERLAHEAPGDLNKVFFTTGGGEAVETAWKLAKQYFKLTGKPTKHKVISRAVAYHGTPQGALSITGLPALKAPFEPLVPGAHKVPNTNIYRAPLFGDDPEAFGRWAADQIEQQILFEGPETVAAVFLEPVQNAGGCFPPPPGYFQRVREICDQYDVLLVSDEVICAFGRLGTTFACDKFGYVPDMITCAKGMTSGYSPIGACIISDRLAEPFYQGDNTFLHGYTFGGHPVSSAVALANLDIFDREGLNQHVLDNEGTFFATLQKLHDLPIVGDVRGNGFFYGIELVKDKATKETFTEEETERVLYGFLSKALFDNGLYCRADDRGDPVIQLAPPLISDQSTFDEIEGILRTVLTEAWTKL

[1] = biological target: Sbv333-ATA, (S)-selective amine transaminase from a Streptomyces strain (Streptomyces sp.); test: SEC; analytical gel filtration, single peak; methods describe a calibrated Superdex 200 pg HiLoad 16/600 column, 20 mM HEPES pH 9.0, 500 mM NaCl

stoichiometry N [1]	Molecule	glycine oxidase (GO) coupled assay; acetophenone formation at 245 nm (Sbv333-ATA)
–	C[C@H](N)c1ccccc1 [compound 1, (S)-methylbenzylamine]	The enzyme was active toward a diverse set of substrates, including (S)-methylbenzylamine ((S)-1)
2	Sbv333-ATA, (S)-selective amine transaminase from a Streptomyces strain (enzyme)	–
